No end group written: not given here. *: point of attachment. Octanoyl = CCCCCCCC(=O)*
What was measured:
[1] = system: striatal dopamine; experiment: Striatal DA concentration after ghrelin injection (HPLC); format: in vivo, mice
Description: (§1) The samples were subsequently thawed in 0.4 ml of chilled 0.1 M perchloric acid and sonicated. Aliquots were taken for protein quantification using a spectrophotometric assay. Other aliquots were centrifuged, and DA levels were measured in supernatants by high pressure liquid chromatography (HPLC) with electrochemical detection. Concentrations of DA and metabolites were expressed as ng/mg protein (mean±SEM).
To further examine the effect of ghrelin on the nigrostriatal system, striatal DA concentration after ghrelin injection in wild-type mice was measured using HPLC.

[2] = system: midbrain (SN-VTA) mitochondria; experiment: Mitochondrial respiration in midbrain of ghrelin-treated rats (Clark-type oxygen electrode); format: in vivo; conditions: 30 nmol IP, 3 hours
Description: Mitochondrial respiration: The ability of ghrelin to promote mitochondrial respiration was examined in mitochondria isolated from midbrain of ghrelin-treated rats (30 nmol) three hours after injection. Rats were used as the mitochondrial yield after isolation is much higher than the yield from mice. Mitochondrial respiration was also examined in the pooled midbrain of UCP2 ko and wt mice (3 pooled brains), 3 hours after ghrelin injection (IP 30 nmol).
(§2) Mitochondria were pooled from the SN-VTA (4 animals=1, total n=4) and isolated by differential centrifugation. Because of the size of the tissue dissected, it was impossible to solely isolate only the SNc, and as such the results are reported as SN-VTA. Briefly, the SN-VTA was rapidly dissected and homogenized in isolation buffer (215 mM Mannitol, 75 mM sucrose, 0.1% fatty acid free BSA, 20 mM Hepes, 1 mM EGTA, pH adjusted to 7.2 with KOH). The homogenate was spun at 1300×g for 3 minutes. The supernatant was removed, and the pellet was resuspended with isolation buffer and spun again at 1300×g for 3 minutes. The 2 sets of supernatant from each sample were topped off with isolation buffer and spun at 13000×g for 10 minutes. The supernatant was discarded, and this step was repeated. After this second spin at 13000×g, the supernatant was discarded, and the pellets were resuspended with isolation buffer without EGTA and spun at 10000×g for 10 minutes. The final mitochondrial pellet was resuspended with 50 μl of isolation buffer without EGTA. Protein concentrations were determined with a BCA protein assay kit (Pierce, Rockford, Ill., USA).
(§3) Mitochondrial respirations were assessed using a Clark-type oxygen electrode (Hansatech Instruments, Norfolk, England) at 37° C. with pyruvate and malate (5 mM and 2.5 mM) as oxidative substrates in respiration buffer (215 mM Mannitol, 75 mM sucrose, 0.1% fatty acid free BSA, 20 mM Hepes, 2 mM MgC1, 2.5 mM KH2PO4, pH adjusted to 7.2 with KOH). Following the addition of ADP and oligomycin, UCP-mediated proton conductance was measured as increased fatty acid-induced respiration (Echtay et al., 2002), which was then compared to state 4 respiration induced by oligomycin, an inhibitor of H^+ transporting ATP synthase.
To determine whether ghrelin influences mitochondrial metabolism in the SNpc, mitochondrial respiration was measured in isolated […] from the midbrain of ghrelin-treated wild-type rats.
Ghrelin was administered intraperitoneally (30 nmol) and food was removed for the three hours injection period prior to sacrifice as ingested calorie load and the postprandial increase in glucose and insulin are known to reduce ghrelin effectiveness (Callahan et al., 2004, J Clin Endocrinol Metab 89: 1319-24; Cummings et al., 2006, Physiol Behav 89: 71-84). […] Subsequent blocking of the ATP synthase with oligomycin produced greater basal uncoupling after ghrelin (saline 31.4±1.4 vs ghrelin 50.4±1.5, p<0.0001; FIG. 4A). Palmitate (free fatty-acid) induced respiration was also elevated in ghrelin-treated rats (saline 125.0±3.8 vs ghrelin 185.3±9.3, p<0.001; FIG. 4A). Finally, ghrelin increased FCCP-driven respiration, an index of total uncoupling capacity of the inner mitochondrial membrane (FIG. 4A).

[3] = system: striatal dopamine; experiment: Striatal dopamine after MPTP (HPLC); format: in vivo, mice; conditions: ghrelin 14 days
Description: Control animals were given saline. Animals were sacrificed and perfused 7 days later and processed for immunohistochemistry or HPLC for dopamine (DA) and metabolites. n=8-10 for ghrelin wt and ko mice; n=6 for GHSR wt/wt, homo/wt and homo/TG.
as §1
The observation that ghrelin promotes SNpc DA neuronal function, mitochondrial respiration and number raises the possibility that ghrelin may protect nigrostriatal dopaminergic system during increased cellular stress. […] In brief, mice were treated with daily IP injections of exogenous ghrelin (10 nmols) or saline for 14 days. Mice were injected immediately before the dark phase, and food was removed overnight since calorie intake and postprandial increases in glucose and insulin can suppress the action of ghrelin (Cummings et al., 2006, Physiol Behav 89: 71-84). Both ghrelin and saline treated mice were given 3 grams of standard chow the following morning at 9 am. […] After the subsequent 7 days of treatment (saline or ghrelin), TH immunoreactive neurons were counted blind by two independent researchers using the non-biased optical fractionator on the stereology program, Stereoinvestigator.

[4] = system: UCP2-dependent mitochondrial respiration; experiment: Uncoupled mitochondrial respiration in pooled midbrain of UCP2 wt or ko mice; format: in vivo; conditions: ghrelin IP 30 nmol, 3 hours
Description: Rats were used as the mitochondrial yield after isolation is much higher than the yield from mice. Mitochondrial respiration was also examined in the pooled midbrain of UCP2 ko and wt mice (3 pooled brains), 3 hours after ghrelin injection (IP 30 nmol).
as §2, §3
To test whether UCP2 is important in ghrelin-induced midbrain respiration, mitochondria were isolated from the midbrain of pooled UCP2 wt or ko mice treated with ghrelin or saline, and uncoupled respiration was measured.

ghrelin (GSS(Octanoyl)FLSPEHQRVQQRKESKKPPAKLQPR; listed as Homo sapiens) [28 amino acid acyl-peptide esterified with octanoic acid on Ser3; endogenous ligand of GHSR]
Effect on DA concentration in ghsr−/− mice ([1]; ghsr−/− mice): no effect | DA concentration in ventral striata ([1]; wild-type mice after ghrelin injection): 126.5±7.26 ng/mg protein | DA concentration in dorsal striatum ([1]; wild-type mice after ghrelin injection, saline 119.4±9.6): 153±4.6 ng/mg protein | FCCP-driven respiration [2]: increased | Basal uncoupling after oligomycin ([2]; saline 31.4±1.4): 50.4±1.5 | Mitochondrial respiration after pyruvate and malate ([2]; saline 33.5±2.1): 49.5±1.9 | Palmitate induced respiration ([2]; saline 125.0±3.8): 185.3±9.3 | Mitochondrial respiration after ADP ([2]; saline 128.3±7.5): 185.2±17.7 | Loss of striatal dopamine vs controls, ghr/MPTP ([3]; MPTP on day 7): 45% | Striatal dopamine concentration, ghr/MPTP ([3]; MPTP on day 7): 78.4±8.8 ng/mg protein | Striatal dopamine concentration, ghr/sal ([3]; saline on day 7, sal/sal 147.4±10.2): 141.8±7.5 ng/mg protein | Basal uncoupled respiration after oligomycin, UCP2 ko mice ([4]; ko saline 34.2±2.6): 39.2±0.4 | Mitochondrial respiration after palmitate, UCP2 ko mice ([4]; ko saline 96.0±7.5): 109.7±2.9 | Basal uncoupled respiration after oligomycin, UCP2 wt mice ([4]; wt saline 32.7±1.6): 41.5±1.9 | Mitochondrial respiration after palmitate, UCP2 wt mice ([4]; wt saline 106.3±5.3): 134.5±4.5 | FCCP-driven respiration, UCP2 wt mice ([4]; wt saline 352±14.1): 472±12.7
